Where “and” joins values, the source holds several entries; their conditions need not be identical. Equal values may be shown once.
Legend:
[1] = Acute toxicity (LD50) in mice; details: mouse, in vivo, ip; intraperitoneal injection, male ICR mice (6 weeks old), after one week; read-out: LD₅₀
Procedure: Epigallocatechin gallate was orally administered to male ICR mice (6 weeks old). LD₅₀ of them after one week was 2314 mg/kg. In another case, epigallocatechin gallate was administered to male ICR mice (6 weeks old) by intraperitoneal injection. LD₅₀ of them after one week was 150 mg/kg.

[2] = target: S toxin of A type toxins produced by Clostridium botulinum (Clostridium botulinum, UniProt P0DPI0); details: in vivo, iv
[3] = target: M toxin of A type toxins produced by Clostridium botulinum (Clostridium botulinum, UniProt P0DPI0); details: in vivo, iv

Row | SMILES | LD50 at 168 h [1] [mg/kg] | Remaining toxic activity (%) [2] | Remaining toxic activity (%) [3]
1 | O=C(O[C@@H]1Cc2c(O)cc(O)cc2O[C@@H]1c1cc(O)c(O)c(O)c1)c1cc(O)c(O)c(O)c1 [epigallocatechin gallate, (-) epigallocatechin gallate] | 150 | – | –
2 | O=c1c(O)cc([C@H]2Oc3cc(O)cc(O)c3C[C@H]2O)cc2c([C@H]3Oc4cc(O)cc(O)c4C[C@H]3O)cc(O)c(O)c12 [free theaflavin] | – | 4.4% and 6.1% | 9.9% and 7.6%

Source: patent publication EP0397914A1 (priority 1989, dated 1990)
